From BindingDB's records for doi:10.1016/0960-894X(96)00183-7 (1996)
pKi: −log10 of the molar value.

Target: alpha-L-fucosidase (Bos taurus)
Experiment: Compound was tested for inhibition of alpha-fucosidase from bovine kidney.

pKi: 4.63
SMILES: O[C@H]1[C@H](O)[C@H](O)CN(Cc2ccccc2)C[C@H]1O [1-Benzyl-azepane-3,4,5,6-tetraol]
